Values quoted from earlier work, collected in patent US10905116B2, “Antimicrobial fabric assemblies” (Higher Dimension Materials, Inc., priority 2016, dated 2021).

Tests used:
E. coli = conditions: against E. coli

Row | Structure (SMILES) | MIC value (Minimum Inhibitory Value) (E. coli) [µg/mL] | silver ion concentration enough to cause antimicrobial activity (bacterium; released from silver nanoparticles confined in nanoscale cages, conditions of normal water, estimated) [parts per billion] | number of silver ions to kill a single bacterium (bacterium; reported)
1 | [Ag] [silver] | 0.05 to 0.1 |  | 
2 | [Ag+] [silver ion] |  | 50 | about 100
